Experimental data published in the supplement of paper PMC11952222, “Development and comparison of single FLT3-inhibitors to dual FLT3/TAF1-inhibitors as an anti-leukemic approach” (PLOS One, 2025).
± gives the standard deviation of the averaged measurements.

Tested on: HDQP1
Assay: cell viability (CellTiter-Glo luminescence) relative to DMSO (fraction of DMSO control); higher = higher signal (more live cells for CellTiter-Glo)
Settings: 0.1 µM; 72 h
Method: (§1)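 MOLM13, DU4475, HDQP1 and IGROV1 cells were treated with compounds in 384-well format for 72 h (KASUMI-1 in 96-well plates, RPMI + 10% FCS, 72 h). Viability was read with CellTiter-Glo and cell death with CellTox Green, both normalised to DMSO vehicle. Doses ranged 0.001-30 µM.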

Row | SMILES | cell viability
1 | Cn1cc(-c2cc(NC(=O)c3ccc(C(C)(C)C)cc3)n[nH]2)ccc1=O [3i-1248] | 0.989 ± 0.033
2 | C=CCCn1cc(-c2cc(C(=O)N3CCOCC3)cc3c2ncn3C)c2cc[nH]c2c1=O [GNE-371] | 1.03 ± 0.047
3 | CC(C)(C)c1cc(NC(=O)Nc2ccc(-c3cn4c(n3)sc3cc(OCCN5CCOCC5)ccc34)cc2)no1 [quizartinib] | 1.01 ± 0.051

Same assay, conditions: 0.3 µM; 72 h

Row | SMILES | cell viability
4 | Cc1cc(-c2cc(NC(=O)c3ccc(C(C)(C)C)cc3)[nH]n2)ccn1 [3i-1246] | 0.986 ± 0.057
5 | CC(C)(C)c1ccc(C(=O)Nc2cc(-c3ccccc3)n[nH]2)cc1 [3i-1247] | 0.943 ± 0.046
6 | Cn1cc(-c2cc(NC(=O)c3ccc(C(C)(C)C)cc3)n[nH]2)ccc1=O [3i-1248] | 0.981 ± 0.082
7 | C=CCCn1cc(-c2cc(C(=O)N3CCOCC3)cc3c2ncn3C)c2cc[nH]c2c1=O [GNE-371] | 1.02 ± 0.036
8 | CC(C)(C)c1cc(NC(=O)Nc2ccc(-c3cn4c(n3)sc3cc(OCCN5CCOCC5)ccc34)cc2)no1 [quizartinib] | 0.87 ± 0.054

Same assay, conditions: 1 µM; 72 h

Row | SMILES | cell viability
9 | Cc1cc(-c2cc(NC(=O)c3ccc(C(C)(C)C)cc3)[nH]n2)ccn1 [3i-1246] | 0.928 ± 0.083
10 | CC(C)(C)c1ccc(C(=O)Nc2cc(-c3ccccc3)n[nH]2)cc1 [3i-1247] | 0.877 ± 0.062
11 | Cn1cc(-c2cc(NC(=O)c3ccc(C(C)(C)C)cc3)n[nH]2)ccc1=O [3i-1248] | 0.973 ± 0.046
12 | C=CCCn1cc(-c2cc(C(=O)N3CCOCC3)cc3c2ncn3C)c2cc[nH]c2c1=O [GNE-371] | 0.975 ± 0.04
13 | CC(C)(C)c1cc(NC(=O)Nc2ccc(-c3cn4c(n3)sc3cc(OCCN5CCOCC5)ccc34)cc2)no1 [quizartinib] | 0.807 ± 0.021

Same assay, conditions: 3 µM; 72 h

Row | SMILES | cell viability
14 | Cc1cc(-c2cc(NC(=O)c3ccc(C(C)(C)C)cc3)[nH]n2)ccn1 [3i-1246] | 0.943 ± 0.068
15 | CC(C)(C)c1ccc(C(=O)Nc2cc(-c3ccccc3)n[nH]2)cc1 [3i-1247] | 0.786 ± 0.061
16 | Cn1cc(-c2cc(NC(=O)c3ccc(C(C)(C)C)cc3)n[nH]2)ccc1=O [3i-1248] | 0.913 ± 0.048
17 | C=CCCn1cc(-c2cc(C(=O)N3CCOCC3)cc3c2ncn3C)c2cc[nH]c2c1=O [GNE-371] | 0.971 ± 0.055
18 | CC(C)(C)c1cc(NC(=O)Nc2ccc(-c3cn4c(n3)sc3cc(OCCN5CCOCC5)ccc34)cc2)no1 [quizartinib] | 0.716 ± 0.088

Same assay, conditions: 10 µM; 72 h

Row | SMILES | cell viability
19 | Cc1cc(-c2cc(NC(=O)c3ccc(C(C)(C)C)cc3)[nH]n2)ccn1 [3i-1246] | 0.628 ± 0.098
20 | CC(C)(C)c1ccc(C(=O)Nc2cc(-c3ccccc3)n[nH]2)cc1 [3i-1247] | 0.719 ± 0.071
21 | Cn1cc(-c2cc(NC(=O)c3ccc(C(C)(C)C)cc3)n[nH]2)ccc1=O [3i-1248] | 0.807 ± 0.054
22 | C=CCCn1cc(-c2cc(C(=O)N3CCOCC3)cc3c2ncn3C)c2cc[nH]c2c1=O [GNE-371] | 0.999 ± 0.056
23 | CC(C)(C)c1cc(NC(=O)Nc2ccc(-c3cn4c(n3)sc3cc(OCCN5CCOCC5)ccc34)cc2)no1 [quizartinib] | 0.84 ± 0.095

Same assay, conditions: 30 µM; 72 h

Row | SMILES | cell viability
24 | Cc1cc(-c2cc(NC(=O)c3ccc(C(C)(C)C)cc3)[nH]n2)ccn1 [3i-1246] | 0.178 ± 0.052
25 | CC(C)(C)c1ccc(C(=O)Nc2cc(-c3ccccc3)n[nH]2)cc1 [3i-1247] | 0.584 ± 0.12
26 | Cn1cc(-c2cc(NC(=O)c3ccc(C(C)(C)C)cc3)n[nH]2)ccc1=O [3i-1248] | 0.269 ± 0.13
27 | C=CCCn1cc(-c2cc(C(=O)N3CCOCC3)cc3c2ncn3C)c2cc[nH]c2c1=O [GNE-371] | 0.979 ± 0.047
28 | CC(C)(C)c1cc(NC(=O)Nc2ccc(-c3cn4c(n3)sc3cc(OCCN5CCOCC5)ccc34)cc2)no1 [quizartinib] | 0.69 ± 0.13

Tested on: DU4475
Assay: as above
Settings: 0.01 µM; 72 h
Method: as §1

Row | SMILES | cell viability
29 | Cc1cc(-c2cc(NC(=O)c3ccc(C(C)(C)C)cc3)[nH]n2)ccn1 [3i-1246] | 1 ± 0.023
30 | CC(C)(C)c1ccc(C(=O)Nc2cc(-c3ccccc3)n[nH]2)cc1 [3i-1247] | 1.02 ± 0.037
31 | Cn1cc(-c2cc(NC(=O)c3ccc(C(C)(C)C)cc3)n[nH]2)ccc1=O [3i-1248] | 1.01 ± 0.029
32 | C=CCCn1cc(-c2cc(C(=O)N3CCOCC3)cc3c2ncn3C)c2cc[nH]c2c1=O [GNE-371] | 1.01 ± 0.017
33 | CC(C)(C)c1cc(NC(=O)Nc2ccc(-c3cn4c(n3)sc3cc(OCCN5CCOCC5)ccc34)cc2)no1 [quizartinib] | 1 ± 0.03

Same assay, conditions: 0.1 µM; 72 h

Row | SMILES | cell viability
34 | Cc1cc(-c2cc(NC(=O)c3ccc(C(C)(C)C)cc3)[nH]n2)ccn1 [3i-1246] | 1 ± 0.048
35 | CC(C)(C)c1ccc(C(=O)Nc2cc(-c3ccccc3)n[nH]2)cc1 [3i-1247] | 0.998 ± 0.027
36 | Cn1cc(-c2cc(NC(=O)c3ccc(C(C)(C)C)cc3)n[nH]2)ccc1=O [3i-1248] | 1.01 ± 0.031
37 | C=CCCn1cc(-c2cc(C(=O)N3CCOCC3)cc3c2ncn3C)c2cc[nH]c2c1=O [GNE-371] | 1.01 ± 0.026
38 | CC(C)(C)c1cc(NC(=O)Nc2ccc(-c3cn4c(n3)sc3cc(OCCN5CCOCC5)ccc34)cc2)no1 [quizartinib] | 0.813 ± 0.038

Same assay, conditions: 0.3 µM; 72 h

Row | SMILES | cell viability
39 | Cc1cc(-c2cc(NC(=O)c3ccc(C(C)(C)C)cc3)[nH]n2)ccn1 [3i-1246] | 0.983 ± 0.023
40 | CC(C)(C)c1ccc(C(=O)Nc2cc(-c3ccccc3)n[nH]2)cc1 [3i-1247] | 0.955 ± 0.025
41 | Cn1cc(-c2cc(NC(=O)c3ccc(C(C)(C)C)cc3)n[nH]2)ccc1=O [3i-1248] | 1 ± 0.035
42 | C=CCCn1cc(-c2cc(C(=O)N3CCOCC3)cc3c2ncn3C)c2cc[nH]c2c1=O [GNE-371] | 1.02 ± 0.023
